Laboratory results reported in US10947223B2, “Substituted oxazines as beta-secretase inhibitors” (AMGEN INC., priority 2016, dated 2021).

What was measured:
[1] = test system: Aβ peptide; conditions: sustained and dose-dependent manner; cited from earlier work
[2] = phase I clinical trials; cited from earlier work
[3] = test system: Aβ peptide; conditions: nonhuman primates; cited from earlier work
[4] = repeated doses up to 200 mg, phase I clinical trial; cited from earlier work
[5] = test system: Aβ peptide; conditions: oral dose of 95 mg once daily; cited from earlier work
[6] = in vivo; cited from earlier work
[7] = target: T1, BACE1 (Homo sapiens (Human), UniProt P56817); assay: In vitro enzymatic BACE1 FRET assay; format: biochemical; conditions: pH 4.5, read-out: BACE1 Enzyme IC50
Description: (§1) In Vitro Enzymatic BACE1 and BACE2 FRET (Fluorescence Resonance Energy Transfer) Assays
(§2) The cDNAs for both human recombinant BACE1 and 2 with C-terminal 6-His Tags were cloned into transient protein expression vectors, which were subsequently transfected into mammalian cell lines. These recombinant proteins were further purified using Ni-NTA affinity chromatography (Qiagen). The assay buffer used in these screens was 0.05 M acetate, pH 4.5, 8% DMSO final, 100 μM genapol (which is a nonionic detergent, below its Critical Micelle Concentration). The β-secretase enzyme (0.02 nM for BACE1 and 0.64 nM for BACE2), which was pre-incubated for one hour with the test compound, typically in about 1 uL of DMSO according to a serial dilution, was added thereto. The assay was effectively started by the addition of FRET substrate (50 nM) and the combination was incubated for one hour. The FRET assay was terminated by the addition of tris buffer, which raised the pH to neutrality, and the fluorescence was determined. The FRET substrate was a peptide with commercially available fluorophore and quencher, on opposite sides of the BACE cleavage site. The specific FRET substrate used in this assay was made by Amgen in-house. Commercially available FRET substrates, for example, the FRET substrate offered with the BACE1 FRET Assay Kit sold by ThermoFisher Scientific (Catalog Number P2985), may be used in this assay with the appropriate modifications, which are within the purview of the ability of a person with ordinary skill in the art. Proteolytic cleavage of the FRET substrate released quenching of fluorescence (excitation 488 nm and emission 590 nm).
Target sequence in this assay (P56817 46-501): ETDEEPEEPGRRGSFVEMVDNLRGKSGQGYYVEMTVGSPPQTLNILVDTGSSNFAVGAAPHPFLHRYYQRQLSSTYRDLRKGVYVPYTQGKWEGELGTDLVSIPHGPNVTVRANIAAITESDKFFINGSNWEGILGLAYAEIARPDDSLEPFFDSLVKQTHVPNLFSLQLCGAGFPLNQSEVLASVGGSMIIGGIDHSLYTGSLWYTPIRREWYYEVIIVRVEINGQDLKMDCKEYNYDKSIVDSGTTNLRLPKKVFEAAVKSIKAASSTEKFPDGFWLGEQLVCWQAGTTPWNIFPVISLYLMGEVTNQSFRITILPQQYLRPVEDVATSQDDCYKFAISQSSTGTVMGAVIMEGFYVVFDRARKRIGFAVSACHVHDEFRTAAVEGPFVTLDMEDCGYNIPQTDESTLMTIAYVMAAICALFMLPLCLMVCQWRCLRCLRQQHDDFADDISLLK

[8] = target: T1, BACE1; assay: In vitro BACE1 cell-based assay (Aβ40 in conditioned medium, HTRF); conditions: Aβ40 in conditioned medium of cells expressing APP, 24 h
Description: In Vitro BACE1 Cell-Based Assay
The cell-based assay measures inhibition or reduction of Aβ40 in conditioned medium of test compound treated cells expressing amyloid precursor protein. Cells stably expressing Amyloid Precursor Protein (APP) were plated at a density of 45K cells/well in 384 well plates (Corning/BioCoat 354663). The test compounds were then added to cells in 22-point dose response concentrations with the starting concentration being 62.5 μM. The compounds were diluted from stock solutions in DMSO and the final DMSO concentration of the test compounds on cells was 0.625%. The cells were cultivated overnight at 37° C. and 5% CO2 in DMEM supplemented with 10% FBS. After 24 h of incubation with the test compounds, the conditioned media was collected and the Aβ40 levels were determined using HTRF (Homogeneous Time Resolved Fluorescence). The IC50 of the compound was calculated from the percent of control or percent inhibition of Aβ 40 as a function of the concentration of the test compound.
The HTRF to detect Aβ40 was performed in 384 well plates (Costar 3658). The antibody pair that were used to detect Aβ 40 from cell supernatants were ConfAb40 antibody (Amgen in-house) and biotinylated 6E10 (BIOLEGEND). As an alternative to ConfAb40, a commercially available antibody, Anti-beta Amyloid 1-40 antibody [BDI350] from Abcam, Cambridge, Mass. 02139-1517 (Product code: ab20068), may be used in this assay. The concentrations were 0.35 μg/mL of ConfAb40 antibody and 1.33 μg/mL of 6E10-biotinylated antibody, as well as 4.5 μg/mL of Streptavidin Allophycocyanin Conjugate (ThermoFisher Scientific) in HTRF Buffer ([…], 1% BSA, 0.5% Tween 20).
The conditioned media was incubated with above antibodies and Streptavidin Allophycocyanin Conjugate for 30-60 minutes at 23° C. The final readout was performed on Envision from PerkinElmer.
Target sequence in this assay (P56817 46-501, species assumed): as the sequence (P56817 46-501) above

[9] = target: human recombinant BACE2 (Homo sapiens (Human), UniProt Q9Y5Z0); assay: In vitro enzymatic BACE2 FRET assay; format: biochemical; conditions: pH 4.5, read-out: BACE2 Enzyme IC50
Description: as §1, §2

[10] = target: Recombinant CatD (Homo sapiens (Human), UniProt P07339); assay: In vitro enzymatic Cathepsin D (CatD) FRET assay; format: biochemical; conditions: pH 3.5, read-out: CatD Enzyme IC50
Description: In Vitro Enzymatic Cathepsin D (CatD) FRET Assay
Recombinant CatD was expressed in CHO cells. The assay buffer for CatD was 0.05 M citrate pH 3.5, 10% DMSO final, 5 mM CHAPS. The CatD enzyme (9 nM) was pre-incubated for one hour with inhibitors, typically in about 1 uL of DMSO according to a serial dilution, is added thereto. The assays was effectively started by the addition of different FRET substrates (20 nM for CatD) and the combination was incubated for one hour. The FRET assay was terminated with by addition of tris buffer, which raises the pH to neutrality, and the fluorescence was determined. The FRET substrate was a peptide with commercially available fluorophore and quencher, on opposite sides of the CatD cleavage site. The CatD substrate peptide sequence was based on sequence #1 of Table 1 from Gulnik et al., FEBS Lett. 413(2):379-384 (1997). Proteolytic cleavage of the FRET substrate released quenching of fluorescence (CatD excitation 500 nm and emission 580 nm).
The in vitro CatD FRET assay data for each of the Examples is provided in Table 2, conducted by the first procedure described above. […] Thus, with this surprising selectivity profile, the compounds provided herein are believed to minimize, reduce or completely eliminate any risk of retinal atrophy and abnormal development of the eye and of the retinal pigmented epithelium as it relates to the normal function and activity of CatD.

[11] = test system: pigment epithelium of the rat's eye; conditions: higher compound dose given for three months; cited from earlier work

Chain of human recombinant BACE2 (Q9Y5Z0 63-518): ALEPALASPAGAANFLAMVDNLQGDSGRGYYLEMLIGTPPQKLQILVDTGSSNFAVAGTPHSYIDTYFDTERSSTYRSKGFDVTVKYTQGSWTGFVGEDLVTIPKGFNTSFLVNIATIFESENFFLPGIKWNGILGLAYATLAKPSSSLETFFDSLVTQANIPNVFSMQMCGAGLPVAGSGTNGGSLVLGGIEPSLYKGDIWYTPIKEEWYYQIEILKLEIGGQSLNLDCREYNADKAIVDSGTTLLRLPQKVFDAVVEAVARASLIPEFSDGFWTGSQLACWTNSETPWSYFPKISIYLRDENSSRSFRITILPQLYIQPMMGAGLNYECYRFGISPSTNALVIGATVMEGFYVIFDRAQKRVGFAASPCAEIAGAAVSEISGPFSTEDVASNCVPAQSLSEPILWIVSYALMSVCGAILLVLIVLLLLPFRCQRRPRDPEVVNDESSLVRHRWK
Chain of Recombinant CatD (P07339 65-412): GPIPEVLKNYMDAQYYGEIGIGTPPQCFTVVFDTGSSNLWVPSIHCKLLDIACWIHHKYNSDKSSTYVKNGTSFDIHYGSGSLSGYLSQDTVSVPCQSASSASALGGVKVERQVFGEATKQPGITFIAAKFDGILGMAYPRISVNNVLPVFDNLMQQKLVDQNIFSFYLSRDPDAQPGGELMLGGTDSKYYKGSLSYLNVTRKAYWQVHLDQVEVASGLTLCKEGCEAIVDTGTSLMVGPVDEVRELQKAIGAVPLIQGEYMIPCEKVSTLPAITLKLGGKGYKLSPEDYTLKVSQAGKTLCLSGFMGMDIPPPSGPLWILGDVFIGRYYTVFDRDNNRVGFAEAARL

Structure (SMILES) | IC50 [7] [nM] | IC50 [8] [nM] | IC50 [9] [nM] | IC50 [10] [µM] | also measured
CN1C(=N)N[C@](C)(c2cc(NC(=O)c3ccc(F)cn3)ccc2F)CS1(=O)=O [MK-8931] |  |  |  |  | CSF Aβ peptide concentrations [1]: significantly reduced CSF Aβ peptide concentrations; safety profile [2]: excellent safety profile with no immediately noticeable side effects
C[C@H]1OC[C@]2(c3cc(NC(=O)c4cnc(C(F)F)cn4)ccc3F)N=C(N)SC[C@H]12 [Example E2609] |  |  |  |  | reduction in Aβ peptide levels in the CSF and plasma [3]: significant reduction; clinical safety [4]: did not show clinical significant safety concerns
C[C@@]1(c2cc(NC(=O)c3ccc(C#N)cn3)ccc2F)C=CSC(N)=N1 [JNJ-54861911] |  |  |  |  | Aβ peptide reduction in CSF [5]: up to 95%; ability to cross the blood-brain barrier [6]: demonstrated an ability to cross the blood-brain barrier
CC#CCOc1cnc(/C(F)=C/c2ccc(F)c([C@@]3(C)N=C(N)OC[C@@H]3OCC(F)(F)F)c2)cn1 [Example 113, (4R,5R)-4-(5-((Z)-2-(5-(but-2-yn-1-yloxy)pyrazin-2-yl)-2-fluorovinyl)-2-fluorophenyl)-4-methyl-5-(2,2,2-trifluoroethoxy)-5,6-dihydro-4H-1,3-oxazin-2-amine] | 52 | 48 | 17000 | 233 | 
C[C@@]1(c2cc(-c3cncnc3)c(F)cc2F)CCSC(N)=N1 [LY 2811376] |  |  |  |  | eye toxicity finding [11]: damaged the pigment epithelium of the rat's eye
N#Cc1ccc(/C(F)=C/c2ccc(F)c([C@@]3(C(F)F)N=C(N)O[C@@H]4C[C@@H]43)c2)nc1 [Example 102, 6-((Z)-2-(3-((1R,5S,6R)-3-amino-5-(difluoromethyl)-2-oxa-4-azabicyclo[4.1.0]hept-3-en-5-yl)-4-fluorophenyl)-1-fluorovinyl)nicotinonitrile] | 152 | 344 | 1620 | 222 | 
C[C@@]1(c2nc(/C=C(\F)c3ccc(C#N)cn3)ccc2F)CO[C@@](C)(C(F)(F)F)C(N)=N1 [Example 117, 6-((Z)-2-(6-((3R,6R)-5-amino-3,6-dimethyl-6-(trifluoromethyl)-3,6-dihydro-2H-1,4-oxazin-3-yl)-5-fluoropyridin-2-yl)-1-fluorovinyl)nicotinonitrile] | 149 | 90 | 853 | 121 | 
